Among the data in a melting point compilation (Tetko et al.; mined from patent text by program, amines drawn as free bases though some values may be those of a salt) are melting point values, retold here.

Turning to `Cn1nc(C(=O)O)cc1OCCCN1CCN(c2cccc3sccc23)CC1`, the melting point (usually the temperature of the solid-liquid transition) lay within 114 to 118 °C. To `O=C(CCC(NS(=O)(=O)c1ccc2oc3ccccc3c2c1)C(=O)O)NCCc1ccccc1` (centres undefined) belongs 197 to 201 °C. As for `N#Cc1cccc(-c2ccc(OCC(CN3C(=O)CCC3=O)N(O)C=O)cc2)c1` (centres undefined), the melting point came out at 128 °C. The figure for `CC(C)(C)OC(=O)N1CCN(C(=O)N2CC(=O)Nc3ccccc32)CC1` is 166 to 167 °C. In turn, `CCNC(=O)c1ccc(-n2nnc(C(=O)NC3CC3)c2CO)c(O)c1` came in with a melting point of 185 °C.

`C/C(=C(\C#N)C(N)=S)N1CCCCC1` had a melting point of 161 to 166 °C. For the molecule `CC(C)(C)c1ccc(O)c(C=O)c1`, the melting point worked out at 81 °C. The figure for `Cc1c(CC(=O)O)c2cc(O)c(F)cc2n1C(=O)c1ccccc1` is 159 to 161 °C; for `CS(=O)(=O)c1ccc(CC(N)C(O)C(=O)C2(C(=O)NC(CCCNC(=N)N)C(=O)O)CCCC2N)cc1` (centres undefined) it is 142 to 145 °C. To `Cc1oc(-c2ccccc2)nc1COc1ccc(CO)cn1` belongs 121 to 122 °C. The figure for `CN(Cc1ccccc1)C(=O)CCC(=O)c1ccc(Cl)c(S(N)(=O)=O)c1` is 162 °C. In turn, `CCCn1nc2c(N)nc3ccccc3c2c1CCCc1cc[nH]c1` had a melting point of 173 to 174 °C. The figure for `COC1=CCC2=C(CC[C@H]3[C@@H]4CCC(=O)[C@@]4(C)CC[C@]23C)C1` is 155 to 158 °C; for `CONC(=O)c1[nH]c(C)c(-c2nc3ccc(Oc4ccccc4)cc3[nH]2)c1C` it is 166 to 168 °C.

In turn, `Cc1cc(C(=O)N2Cc3ccc(C(=O)N(C)C[C@H](O)[C@H]4OC(=O)O[C@@H]4[C@H](O)CO)n3Cc3ccccc32)ccc1C1=CCCCC1` returned a melting point of 166 to 175 °C.

Consider `Cn1nc2ccccc2c1C(=O)NC1CCN(CCc2ccc(F)cc2)C1` (centres undefined), for which the melting point is 117 to 119 °C. On to `CC#Cc1ccc(C2CCC(C3CCC(CCC)CC3)CC2)cc1` (centres undefined), for which the melting point worked out at 82 °C. The figure for `O=[N+]([O-])c1cc(Cl)c(Oc2cc(Cl)c(Br)cc2Cl)cc1NCc1ccccc1` is 157 °C; for `O=S1(=O)CCN(CCCN2CCc3sc(Nc4ncc(F)cn4)nc3-c3c[nH]nc32)CC1` it is 272 to 273 °C. The figure for `CCOC(=O)N(CC(=O)O)C(=O)c1c(OCC(F)(F)F)ccc2c(C(F)(F)F)c(OC)ccc12` is 166 to 167 °C; for `O=C(O)CNC(=O)COc1nc(F)c(Cl)cc1Cl` it is 155 to 157 °C; for `Cc1cc(N2CCN(Cc3ccc(C(F)(F)F)cc3)C2=O)sc1C(=O)NCc1cccnc1` it is 102 to 104 °C.

Turning to `O=S(=O)(Cl)c1cc(S(=O)(=O)Cl)c2cc(S(=O)(=O)Cl)cc(S(=O)(=O)Cl)c2c1`, the melting point was 263 to 270 °C.

Molecule `COc1cc(Nc2ccnc(Nc3cc(OC)c(OC)c(OC)c3)n2)cc(OC)c1OC` showed a melting point of 180 °C. The figure for `COc1cc([C@@H]2c3cc4c(cc3C(=O)C[C@H]2C(=O)O)OCO4)cc(OC)c1OC` (relative stereo) is 221 to 223 °C. `CS(=O)(=O)Nc1ccc(-c2cn3cccnc3n2)cc1Sc1ccc(F)cc1F` registered a melting point of 219 to 220 °C.

Regarding `COc1ccc(C(=O)CCC(=O)c2ccc(OC)c(OC)c2)cc1OC`, the melting point was 181 to 182 °C. To `c1ccc(-c2nnc(-c3ccc(CN4CCCCCC4)s3)o2)cc1` belongs 95 to 97 °C; to `C=COC(=O)N=c1sc2cc(OC(F)(F)F)ccc2n1CCSC(C)=O`, 173 °C; to `Cc1cc(I)cc(C(=O)O)c1N`, 214 °C. The molecule `CC(C)(C)c1cc(C=C(C#N)C#N)cc(I)c1O` displayed a melting point of 188 °C.

Regarding `O=C(O)/C=C/C(=O)/C=C/c1ccc(C(F)(F)F)cc1`, the melting point is 192 to 195 °C. The figure for `COc1ccc(CNc2ncc[nH]2)cc1OC1CCCC1` is 114 to 115 °C; for `CS(=O)(=O)Cc1cccc(C(F)(F)F)c1N` it is 96 to 98 °C.
